Assay results published in the METLIN SMRT retention time set (Domingo-Almenara et al. 2019).

Experiment: gradient 5% acetonitrile 3 min, to 50% in 2 min, to 85% in 15 min, held 3 min, 100 µL/min
Details: column: Zorbax Extend-C18 2.1 x 50 mm; eluents: water / acetonitrile, 0.1% formic acid
In short: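 Retention time was recorded from adduct peaks, which were picked computationally and each inspected manually. Pure standards ran in mixtures of ~100 molecules on HPLC coupled to a quadrupole time-of-flight mass spectrometer, in positive and negative ionization mode, through a Zorbax Extend-C18 column (2.1 × 50 mm, 1.8 μm) at 100 μL/min. Eluents were water and acetonitrile, each with 0.1% formic acid.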

Compound | RP-LC retention time
Cc1ccc(NC(=O)Cn2cnc3c(-c4ccccc4)csc3c2=O)c(Cl)c1 | 965 s
CCOc1ccc(S(=O)(=O)N2CCCC(C(N)=O)C2)cc1C (configuration not stated) | 747 s
Cc1cccc(NC(=O)N2CCC3(C2)C(=O)Nc2ccccc23)c1 (configuration not stated) | 727 s
Cc1noc(C)c1CC(=O)NCC1Cn2cccc2C(=O)N1CC(C)C (configuration not stated) | 664 s
O=C(NCCc1cccs1)c1nc(Nc2ccc(F)cc2)c2ccccc2n1 | 825 s
O=C(Nc1ccc(N2CCCN(C(=O)C3CC3)CC2)cc1)c1cc(-c2ccc(F)cc2)n[nH]1 | 730 s
COC(=O)c1cc(C)nc2c1c(=O)n(Cc1ccc(C)cc1)c(=O)n2Cc1ccco1 | 1160 s
O=C(CN1CCN(Cc2ccc(F)cc2)C(=O)C1=O)N1CCN(Cc2ccccc2)CC1 | 603 s
CCc1noc(NC(C)=O)c1-c1ccc(OC)c(S(=O)(=O)N2CCN(c3ccccn3)CC2)c1 | 614 s
O=C(c1nc2ccccc2nc1Cl)N1CCN(c2ccccn2)CC1 | 597 s
O=C(Nc1cccc(OCc2nnc(-c3ccc(Cl)cc3)o2)c1)c1ccoc1 | 970 s
Fc1ccc(CN(C2=NCCN2)c2c(Cl)cccc2Cl)cc1 | 760 s
Cc1ccc(-n2nc(C)c(S(=O)(=O)N3CCN(c4ccccn4)CC3)c2C)cc1 | 721 s
COC(=O)C1=CN(c2ccccc2C)c2ccc(F)cc2S1(=O)=O | 879 s
CCOC(=O)C1CCN(C(=O)C2CCCN(c3ncnc4c3nc3n4CCCCC3)C2)CC1 (configuration not stated) | 726 s
Cn1c(=O)sc2cc(S(=O)(=O)N3CCC(C(=O)N4CCOCC4)CC3)ccc21 | 663 s
CCOC(=O)C1CCN(C(=O)c2csc(Nc3ccc(S(C)(=O)=O)cc3)n2)CC1 | 620 s
Cc1ccc(Cn2cccc2-c2nc(-c3ccc(F)cc3)no2)cc1 | 1460 s
CCCNc1cc(N2CCC(CCC(=O)NC(C)C)CC2)ncn1 | 602 s
Cc1ccc(CNC(=O)N2c3ccccc3CC2c2nc(C3CC3)no2)cc1 (configuration not stated) | 972 s
Cc1ccc(Cn2cc(CCC(=O)N3CCC(C(N)=O)CC3)c3ccccc32)cc1 | 813 s
CCOC(=O)c1cccc(Nc2c(-c3ccc(N(C)C)cc3)nc3cnccn23)c1 | 837 s

Compound | RP-LC retention time
COCc1nnc(NC(=O)C2CC(=O)N(CCc3c[nH]c4ccc(Cl)cc34)C2)s1 (configuration not stated) | 724 s
O=c1n(Cc2ccccc2Cl)nc2c(S(=O)(=O)N3CCc4ccccc4C3)cccn12 | 1030 s
Cc1nc(N2CCN(c3ccccn3)CC2)c2c(C)c(C(=O)Nc3ccc(F)cc3F)sc2n1 | 701 s
Cc1ccc(CN2C[C@@H](CO)[C@H](c3nc(C)no3)C2)cc1 | 592 s
CCC1Oc2ccc(S(=O)(=O)N3CCC(C(=O)NCc4cccs4)CC3)cc2NC1=O (configuration not stated) | 807 s
CCOC(=O)CCC(=O)N1CC(c2nc(C)no2)C1 | 603 s
COC(=O)[C@H](Cc1cccc(C(=N)N)c1)[C@@H](C)NC(=O)c1ccc(-c2cc[n+]([O-])cc2)cc1 | 610 s
CN(C)c1nc2cc(C(=O)N3CCC4(CC3)OCCO4)sc2n1-c1ccccc1 | 647 s
COc1ccc(CNC(=O)C2(c3ccc(NC(C)=O)cc3)CCC2)cc1 | 728 s
COC(=O)C1=CN(c2ccc(C)c(C)c2)c2ccccc2S1(=O)=O | 941 s
CCCNC(=O)c1cn(-c2cc(-c3nc(C)no3)ccn2)cn1 | 706 s
COc1ccc(C(=O)N2CCN(c3ccc(=O)n(-c4ccc(C(C)C)cc4)n3)CC2)cc1OC | 867 s
COc1ccccc1C(CNC(=O)c1cc(=O)c2ccc(Br)cc2o1)N(C)C (configuration not stated) | 669 s
O=C(C1=CN(c2ccc(F)c(Cl)c2)c2cc(F)ccc2S1(=O)=O)N1CCOCC1 | 775 s
CCc1ccc(NS(=O)(=O)c2c(C)sc(C)c2-c2cc(C)[nH]n2)cc1 | 1130 s
COc1ccccc1C(=O)N1CCC(n2cnnc2-c2ccccc2)C1 (configuration not stated) | 643 s
COC(=O)c1ccc(C(=O)Nc2ccncc2NC(=O)c2ccc(C(=O)OC)cc2)cc1 | 646 s
O=C(Cn1cccn1)N1CCN(c2cccc(Cl)c2Cl)CC1 | 782 s
Cc1nc(N2CCOCC2)c2c(C(=O)Nc3ccccc3)c(C)oc2n1 | 778 s
Cc1ccc2c(C(=O)NCc3cc(F)cc(F)c3)cc(NC(=O)C(C)C)cc2n1 | 666 s
CN(Cc1ccccc1)C(=O)c1cc2c(=O)oc3ccccc3c2n1C | 884 s
CCS(=O)(=O)N1CCC(c2noc(-c3ccccc3)n2)CC1 | 897 s

Compound | RP-LC retention time
O=C(NC1CCS(=O)(=O)C1)C1CCN(c2cnn(Cc3ccccc3)c(=O)c2)C1 (configuration not stated) | 662 s
Cc1ccc(N2CCC(NC(=O)Nc3ccc(C)c(C)c3)C2=O)cc1 (configuration not stated) | 902 s
Cc1cc(C)cc(NC(=O)N2C[C@@H](F)C[C@H]2C(=O)N2CCc3ccccc3C2)c1 | 879 s
O=C(Nc1ccccc1Cl)c1c(O)c2cccnc2n(-c2ccc(F)cc2)c1=O | 1270 s
O=C1C(c2cccnc2)N(Cc2ccc3c(c2)OCO3)C(=O)CN1c1ccccc1 (configuration not stated) | 636 s
CC(C)n1c(CN2CCN(C)CC2)nc2cc(NC(=O)c3cccs3)ccc21 | 565 s
CCN1C(=O)C(C)(C(=O)Nc2ccccc2)Oc2cccnc21 (configuration not stated) | 859 s
Cn1ncc2c3ccccc3n(CC(=O)N3CCN(c4ccc(F)cc4)CC3)c2c1=O | 875 s
COc1ccc(-c2ncc3c(n2)CCN(C(=O)c2ccc(Br)o2)C3)cc1 | 946 s
Cc1c(C(=O)N2CCN(C)CC2)cc(-c2ccccc2)n1C | 612 s
CCCCN(C)C(=O)Cn1nc2c3cc(-c4cc(C)ccc4C)nn3ccn2c1=O | 973 s
Cc1cc(C)n(-c2ccnc(N3CCC(C(=O)NCc4ccccc4)CC3)n2)n1 | 832 s
Cc1noc2ncnc(N3CCCC(C(=O)N4CCN(Cc5ccc6c(c5)OCO6)CC4)C3)c12 (configuration not stated) | 611 s
Cc1nnc(-c2ccc(S(=O)(=O)NCc3ccco3)o2)o1 | 722 s
COc1ccc2c(c1)C1(CCN(C(=O)NCc3ccc(F)cc3)C1)C(=O)N2C (configuration not stated) | 755 s
CC(C)OCCCNC(=O)CCc1nnc2c3cc(-c4ccccc4)nn3ccn12 | 690 s
CC(C)C(=O)Nc1ccc2c(c1)N(C(=O)c1ccco1)CCC2 | 743 s
CC(=O)Nc1cccc(NS(=O)(=O)c2ccc3c(c2)OCCCO3)c1 | 676 s
CCOC(=O)N1CCN(CC(O)COc2c(F)cc(Br)cc2F)CC1 (configuration not stated) | 591 s
O=C(CCNc1c(-c2cccc(F)c2)nc2cnccn12)NCc1ccc2c(c1)OCO2 | 712 s
O=C1NCCCCCN(C(=O)c2ccc(Cn3ccnc3)o2)[C@H]2CCC[C@@H]12 | 567 s
COCCN1CCC(N2CCCN(S(=O)(=O)c3ccc(C)cc3)CC2)C1=O (configuration not stated) | 591 s

Compound | RP-LC retention time
COc1ccc(Cl)cc1C(=O)NCCCOc1cccc2cccnc12 | 611 s
CCOc1ccccc1NC(=O)C1CCN(S(=O)(=O)c2ccc3c(c2)sc(=O)n3C)CC1 | 931 s
O=C(NCCc1c[nH]c2ccc(Cl)cc12)c1ccc(-n2nnc3cccnc32)cc1 | 922 s
O=C(Cn1cccc1-c1nc(-c2ccc3c(c2)OCO3)no1)N1CCc2ccccc21 | 1090 s
CCOC(=O)CSc1nnc(-c2cccnc2)n1-c1ccccc1 | 654 s
CCS(=O)(=O)Nc1ccc(C2(C(=O)NCc3cc(F)cc(F)c3)CCCCC2)cc1 | 972 s
CCCS(=O)(=O)N1CCCC(c2nnc(-c3cccs3)o2)C1 (configuration not stated) | 749 s
O=C(NCCc1csc(-c2ccccc2)n1)C1CCN(S(=O)(=O)c2ccc(Cl)s2)CC1 | 1010 s
CCC(CC)C(=O)Nc1nc(-c2ccc3c(c2)N(C)C(=O)C(C)O3)cs1 (configuration not stated) | 992 s
Cc1ccc(CNC(=O)C(C)n2nc(C)c3c(C)n(-c4ccccc4)nc3c2=O)o1 (configuration not stated) | 736 s
O=C(Cn1ccc2sccc2c1=O)Nc1ccc(Br)cc1F | 832 s
CC1CCN(CC2CCN(S(=O)(=O)c3ccc(F)c(Cl)c3)CC2)CC1 | 688 s
CCN1C(=O)c2cccc3c(NC(=O)CSc4ccc(Cl)cc4)ccc1c23 | 861 s
CCOC(=O)c1c(C)oc2nc(C)nc(N3CCN(c4ccccc4F)CC3)c12 | 1210 s
CC1CCCN(C(=O)c2ccc(CN3CCN(Cc4ccc(F)cc4)C(=O)C3=O)cc2)C1 (configuration not stated) | 788 s
CCc1noc(-c2cnc3nc(C)ccc3c2Nc2ccccc2C)n1 | 818 s
Cn1nc(C(=O)N2CCCN(c3cc(-c4ccc(Cl)cc4)[nH]n3)CC2)c2ccccc21 | 805 s
COc1ccc2c(c1)CCc1sc(NC(=O)c3ccco3)nc1-2 | 961 s
CCN1CCN(CCCNC(=O)C2CCN(c3nc4cccnc4n(CC)c3=O)CC2)CC1 | 580 s
O=S(=O)(c1ccc2c(c1)CCC2)N1CCC(CN2CCCCCC2)CC1 | 708 s
Cc1c(S(=O)(=O)N2CCCCC2)c(C)n(C)c1-c1nnc(C2CCC2)o1 | 1000 s
